The assay has as its target T1, full length human farnesoid X receptor (Homo sapiens, UniProt Q96RI1).
T1 construct: CMX-farnesoid X receptor (full length human farnesoid X receptor); expressed in transfected cells; host or cells: CV-1 African Green Monkey Kidney cells
T1 sequence (Q96RI1 1-472 isoform Q96RI1-2): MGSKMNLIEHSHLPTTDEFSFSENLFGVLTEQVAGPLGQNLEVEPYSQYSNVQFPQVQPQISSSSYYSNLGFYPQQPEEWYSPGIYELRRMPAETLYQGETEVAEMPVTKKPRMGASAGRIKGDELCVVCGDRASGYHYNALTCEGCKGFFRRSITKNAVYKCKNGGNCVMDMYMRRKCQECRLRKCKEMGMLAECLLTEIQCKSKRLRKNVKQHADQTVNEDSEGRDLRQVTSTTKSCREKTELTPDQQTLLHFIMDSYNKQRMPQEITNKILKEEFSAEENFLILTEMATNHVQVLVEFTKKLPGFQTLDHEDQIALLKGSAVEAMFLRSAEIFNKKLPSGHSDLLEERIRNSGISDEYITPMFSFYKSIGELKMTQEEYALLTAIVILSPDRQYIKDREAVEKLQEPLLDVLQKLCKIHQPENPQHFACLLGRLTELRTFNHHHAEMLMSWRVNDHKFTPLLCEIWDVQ
T1 sequence (P19793 1-462 partner): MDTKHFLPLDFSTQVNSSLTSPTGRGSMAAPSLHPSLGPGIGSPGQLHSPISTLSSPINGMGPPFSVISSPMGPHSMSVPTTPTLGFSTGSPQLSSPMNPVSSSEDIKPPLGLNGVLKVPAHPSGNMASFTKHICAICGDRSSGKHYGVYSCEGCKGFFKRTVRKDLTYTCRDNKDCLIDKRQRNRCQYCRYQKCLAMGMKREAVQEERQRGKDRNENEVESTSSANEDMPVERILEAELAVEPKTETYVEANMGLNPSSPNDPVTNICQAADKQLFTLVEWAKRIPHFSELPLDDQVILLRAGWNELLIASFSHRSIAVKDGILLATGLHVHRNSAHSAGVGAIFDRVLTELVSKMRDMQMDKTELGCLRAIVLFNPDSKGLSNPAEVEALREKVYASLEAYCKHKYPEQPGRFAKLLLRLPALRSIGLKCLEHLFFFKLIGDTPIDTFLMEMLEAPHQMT
Briefly: farnesoid X receptor/ECREx7 co-transfection assay. Format: cell-based. Conditions: for EC50: CV-1 cells, agonist mode. How it is done: The basic co-transfection protocol for measuring the farnesoid X receptor activity is as follows. CV-1 African Green Monkey Kidney cells were plated 24 hours before transfection to achieve approximately 70-80 percent confluency. Cells were transfected with the following expression vectors, CMX-farnesoid X receptor (full length human farnesoid X receptor), CMX-RXRα (full length human RXR), Luc12 ((ECREx7-Tk-Luciferase) luciferase reporter gene construct. (See WO 00/76523, Venkateswaran et al., (2000) J. Biol. Chem. 275 14700-14707). A CMX-β-Galactosidase expression vector was used as a transfection control. The transfection reagent used was DOTAP (Boehringer Mannheim). Cells were incubated with the DOTAP/DNA mixture for 5 hours after which the cells were harvested and plated onto either 96 well or 384 well plates containing the appropriate concentration of test compound. The assay was allowed to continue for an additional 18-20 hours, after which the cells were lysed, with lysis buffer (1% triton X 100, 10% glycerol, 5 mM Dithiothreitol, 1 mM EGTA, 25 mM Tricine, pH 7.8) and the luciferase activity measured in the presence of Luciferase assay buffer (0.73 mM ATP, 22.3 mM Tricine, 0.11 mM EGTA, 0.55 mM Luciferin, 0.15 mM Coenzyme A, 0.5 mM HEPES, 10 mM Magnesium sulphate) on a standard luminomter plate reader (PE Biosystems, NorthStar Reader), using recommended operating instructions and conditions.
Both the farnesoid X receptor/ECREx7 co-transfection assay (Example 10) and the TR-FRET assay (Example 9) can be used to establish the EC50/IC50 values for potency and percent activity or inhibition for efficacy. Efficacy defines the activity of a compound relative to a high control (chenodeoxycholic acid, CDCA) or a low control (DMSO/vehicle). The dose response curves are generated from an 8 point curve with concentrations differing by ½ LOG units. Each point represents the average of 4 wells of data from a 384 well plate. The curve for the data is generated by using the equation: Y=Bottom+(Top-Bottom)/(1+10^((Log EC50−X)*HillSlope))
The EC50/IC50 is therefore defined as the concentration at which an agonist or antagonist elicits a response that is half way between the Top (maximum) and Bottom (baseline) values. The EC50/IC50 values represented are the averages of at least 3 independent experiments. The determination of the relative efficacy or % control for an agonist is by comparison to the maximum response achieved by chenodeoxycholic acid that is measured individually in each dose response experiment.
For the antagonist assay, CDCA is added to each well of a 384 well plate to elicit a response. The % inhibition for each antagonist is therefore a measurement of the inhibition of the activity of CDCA. In this example, 100% inhibition would indicate that the activity of CDCA has been reduced to baseline levels, defined as the activity of the assay in the presence of DMSO only.

Some results are limits rather than exact numbers.

The EC50 is the midpoint of the concentration-response curve. High values mean a less potent agent, low ones a more potent agent. In turn, `CCOC(=O)C1CN(C(=O)c2ccc(F)cc2)CC(C)(C)c2c1[nH]c1c2CCCC1` (centres unmarked) [3-(4-Fluoro-benzoyl)-1,1-dimethyl-1,2,3,4,5,6,7,8,9,10-decahydro-azepino[4,5-b]indole-5-carboxylic acid ethyl ester] displayed an EC50 of at most 0.1 µM.
On to `CCOC(=O)C1=CN(C(=O)c2ccc(F)cc2)CC(C)(C)c2c1[nH]c1c2CCCC1` [3-(4-Fluoro-benzoyl)-1,1-dimethyl-1,2,3,6,7,8,9,10-octahydro-azepino[4,5-b]indole-5-carboxylic acid ethyl ester], for which the EC50 is at most 0.1 µM.
Consider `CCOC(=O)C1=CN(C(=O)c2ccc(F)cc2)CCc2c1[nH]c1c2CCCC1` [3-(4-Fluoro-benzoyl)-1,2,3,6,7,8,9,10-octahydro-azepino[4,5-b]indole-5-carboxylic acid ethyl ester], for which the EC50 was at most 1 µM. Further, the efficacy entry (relative to maximum response of chenodeoxycholic acid (CDCA)) is on record as “greater than 100%”.
Compound `CCOC(=O)c1cc2c(n1C)C(C(=O)OC(C)C)=CN(C(=O)c1ccc(F)c(F)c1)CC2(C)C` [6-(3,4-Difluoro-benzoyl)-1,4,4-trimethyl-1,4,5,6-tetrahydro-pyrrolo[2,3-d]azepine-2,8-dicarboxylic acid 2-ethyl ester 8-isopropyl ester] came in with an EC50 of at most 0.1 µM.
Still for that read-out and setting: with `CCOC(=O)c1cc2c([nH]1)C(C(=O)OC(C)C)=CN(C(=O)c1ccc(F)c(F)c1)CC2(C)C` [6-(3,4-Difluoro-benzoyl)-4,4-dimethyl-1,4,5,6-tetrahydro-pyrrolo[2,3-d]azepine-2,8-dicarboxylic acid 2-ethyl ester 8-isopropyl ester] the figure was at most 0.1 µM; with `CCOC(=O)C1=CN(C(=O)c2ccc(F)c(F)c2)CC(C)(C)c2cc(C(=O)OCC)[nH]c21` [6-(3,4-Difluoro-benzoyl)-4,4-dimethyl-1,4,5,6-tetrahydro-pyrrolo[2,3-d]azepine-2,8-dicarboxylic acid diethyl ester], at most 0.1 µM; with `CCOC(=O)C1=CN(C(=O)c2ccc(F)c(F)c2)CC(C)(C)c2ccsc21` [6-(3,4-Difluoro-benzoyl)-4,4-dimethyl-5,6-dihydro-4H-thieno[2,3-d]azepine-8-carboxylic acid ethyl ester], at most 0.1 µM.

These data come from patent publication US8466143B2, “Azepine derivatives as pharmaceutical agents” (Exelixis, Inc., priority 2003, dated 2013).
